The source of these data is patent US7256190B2, “Thiazole compounds useful as inhibitors of protein kinase” (Vertex Pharmaceuticals Incorporated, priority 2001, dated 2007).

SMILES strings stand for the structures.

Usually Ki stands for a measure of affinity in units of concentration, obtained from inhibition or displacement. A higher Ki goes with lower affinity. One may read the IC50 as the midpoint of a concentration-inhibition curve.

What all share (type): biochemical
The target in one test is GSK3-β (AA 1-420) (Homo sapiens, UniProt P49841). The test is described as follows: GSK-3 inhibition assay (coupled enzyme system). Conditions: 10 μM ATP, 300 μM peptide, 60 nM GSK-3β, 30° C. How it is done: Compounds were screened for their ability to inhibit GSK3-β (AA 1-420) activity using a standard coupled enzyme system (Fox et al. (1998) Protein Sci. 7, 2249). Reactions were carried out in a solution containing 100 mM HEPES (pH 7.5), 10 mM MgCl2, 25 mM NaCl, 300 μM NADH, 1 mM DTT and 1.5% DMSO. Final substrate concentrations in the assay were 10 μM ATP (Sigma Chemicals, St Louis, Mo.) and 300 μM peptide (HSSPHQS(PO3H2)EDEEE, American Peptide, Sunnyvale, Calif.). Reactions were carried out at 30° C. and 60 nM GSK-3β. Final concentrations of the components of the coupled enzyme system were 2.5 mM phosphoenolpyruvate, 300μM NADH, 30 μg/ml pyruvate kinase and 10 μg/ml lactate dehydrogenase.
An assay stock buffer solution was prepared containing all of the reagents listed above with the exception of ATP and the test compound of interest. 59 μl of the test reaction was placed in a 96 well ½-diameter plate (Corning, Corning, N.Y.) then treated with 1 μl of a 2 mM DMSO stock containing the test compound (final compound concentration 30 μM). The plate was incubated for ˜10 minutes at 30° C. then the reaction initiated by addition of 7 μl of ATP (final concentration 10 μM). Rates of reaction were obtained using a Molecular Devices Spectramax plate reader (Sunnyvale, Calif.) over a 5 minute read time at 30° C.
(§1) The compound numbers correspond to the compound numbers in Table 1.

For a further test, the target named is T1, Aurora2 (Homo sapiens, UniProt O14965).
T1 sequence (O14965 1-403): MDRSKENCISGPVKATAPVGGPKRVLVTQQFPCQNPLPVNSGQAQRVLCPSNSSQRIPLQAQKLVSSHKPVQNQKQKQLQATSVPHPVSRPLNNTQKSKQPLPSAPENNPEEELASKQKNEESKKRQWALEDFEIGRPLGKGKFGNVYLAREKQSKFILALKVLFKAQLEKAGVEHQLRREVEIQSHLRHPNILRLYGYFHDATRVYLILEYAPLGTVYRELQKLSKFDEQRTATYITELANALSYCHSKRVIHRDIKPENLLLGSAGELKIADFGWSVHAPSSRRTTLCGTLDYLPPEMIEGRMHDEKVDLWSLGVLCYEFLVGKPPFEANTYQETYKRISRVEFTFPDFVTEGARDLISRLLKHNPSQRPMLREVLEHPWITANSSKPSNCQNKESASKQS
The test is described as follows: Aurora2 inhibition assay (coupled enzyme assay). The conditions noted are these: 800 μM peptide LRRASLG, 70 nM Aurora2, 30° C. How it is done: Compounds are screened in the following manner for their ability to inhibit Aurora2 using a standard coupled enzyme assay (Fox et al (1998). Protein Sci 7, 2246). To an assay stock buffer solution containing 0.1M HEPES 7.5, 10 mM MgCl2, 1 mM DTT, 25 mM NaCl, 2.5 mM prosphoenolpyruvate, […], […] pyruvate kinase, […] lactate dehydrogenase, […], and 800 μM peptide (LRRASLG, American Peptide, Sunnyvale, Calif.) is added a DMSO solution of a compound of the present invention to a final concentration of 30 μM. The resulting mixture is incubated at 30° C. for 10 minutes. The reaction was initiated by the addition of 10 μL of Aurora2 stock solution to give a final concentration of 70 nM in the assay. The rates of reaction are obtained by monitoring absorbance at 340 nm over a 5 minute read time at 30° C. using a BioRad Ultramark plate reader (Hercules, Calif.). The IC50 values are determined from the rate data as a function of inhibitor concentration.
as §1

A further test addresses Syk (Homo sapiens, UniProt P43405). Description: Syk inhibition assay (coupled enzyme assay). Conditions: 200 μM ATP, 4 μM poly Gly-Tyr peptide, 30° C. Here is the method:
Reactions were carried out in 100 mM HEPES pH 7.5, 10 mM MgCl2, 25 mM NaCl, 1 mM DTT and 1.5% DMSO. Final substrate .concentrations in the assay were 200 μM ATP (Sigmachemical Co.) and 4 μM poly Gly-Tyr peptide (Sigma Chemical Co.). Assays were carried out at 30° C. and 200 nM Syk. Final concentrations of the components of the coupled enzyme system were 2.5 mM phosphoenolpyruvate, 300 μM NADH, 30 μg/ml pyruvate kinase and 10 μg/ml lactate dehydrogenase.
An assay stock buffer solution was prepared containing all of the reagents listed above, with the exception of Syk, DTT and the test compound of interest. 56 μl of the test reaction was placed in a 96 well plate followed by the addition of 1 μl of 2 mM DMSO stock containing the test compound (final compound concentration 30 μM). […] Rates of reaction were obtained using a BioRad Ultramark plate reader (Hercules, Calif.) over a 5 minute read time at 30° C.
as §1

GSK3-β (AA 1-420), sequence (P49841 whole entry, the tested form may be a part): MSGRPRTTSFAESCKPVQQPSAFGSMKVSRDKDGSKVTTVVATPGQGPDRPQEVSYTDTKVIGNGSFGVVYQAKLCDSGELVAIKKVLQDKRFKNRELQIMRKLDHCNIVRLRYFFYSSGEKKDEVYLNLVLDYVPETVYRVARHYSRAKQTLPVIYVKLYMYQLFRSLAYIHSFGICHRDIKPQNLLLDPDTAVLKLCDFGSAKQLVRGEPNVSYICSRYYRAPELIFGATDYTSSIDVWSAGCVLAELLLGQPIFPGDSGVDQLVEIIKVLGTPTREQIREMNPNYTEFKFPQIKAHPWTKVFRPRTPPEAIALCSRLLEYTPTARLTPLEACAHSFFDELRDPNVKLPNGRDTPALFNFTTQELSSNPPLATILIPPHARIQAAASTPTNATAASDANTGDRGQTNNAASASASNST

Turning to `Fc1cccc(F)c1COc1cccc(Nc2nccc(-c3nccs3)n2)c1` [Compound I-94], the Ki on GSK3-β (AA 1-420) is under 100 nM. Further, the IC50 against Aurora2 and on Syk was under 500 nM in each case.

For `NS(=O)(=O)c1ccc(Nc2nccc(-c3nccs3)n2)cc1` [Compound I-55], the inhibitory constant (Ki) on GSK3-β (AA 1-420) is under 100 nM. In addition, the IC50 on Aurora2 and against Syk was under 500 nM in each case.

In the case of `CS(=O)(=O)c1ccc(COc2cccc(Nc3nccc(-c4nccs4)n3)c2)cc1` [Compound I-5], at GSK3-β (AA 1-420), the Ki is under 100 nM. Further, the IC50 against Aurora2 was over 2000 nM; on Syk, under 500 nM.

Turning to `Nc1cccc(Oc2cccc(Nc3nccc(-c4nccs4)n3)c2)c1` [Compound I-62], the IC50 is 500 to 2000 nM at Aurora2 and under 500 nM against Syk.

Molecule `c1ccc2cc(Nc3nccc(-c4nccs4)n3)ccc2c1` [Compound I-52] gave a Ki on GSK3-β (AA 1-420) of under 100 nM. Moreover, the half-maximal inhibitory concentration (IC50) on Aurora2 and on Syk was over 2000 nM each time.

In turn, `Fc1cccc(F)c1Nc1nccc(-c2nccs2)n1` [Compound I-64] displayed a Ki at GSK3-β (AA 1-420) of over 1000 nM. In addition, the IC50 against Aurora2 and against Syk was over 2000 nM each time.

Regarding `COc1ccccc1COc1cccc(Nc2nccc(-c3nccs3)n2)c1` [Compound I-44], the inhibition constant (Ki) at GSK3-β (AA 1-420) is under 100 nM. The molecule further displayed a concentration for half-maximal inhibition (IC50) against Syk of under 500 nM.

For `O=[N+]([O-])c1cccc(Oc2cccc(Nc3nccc(-c4nccs4)n3)c2)c1` [Compound I-59], the 50% inhibitory concentration (IC50) against Aurora2 and against Syk was over 2000 nM each time.

At GSK3-β (AA 1-420), `Clc1ccc(Nc2nccc(-c3nccs3)n2)cc1` [Compound I-46] came in with a Ki of under 100 nM. Moreover, the IC50 against Aurora2 and against Syk was over 2000 nM throughout.

On GSK3-β (AA 1-420), `c1cc(Nc2nccc(-c3nccs3)n2)cc(OCCn2cccc2)c1` [Compound I-29] returned an inhibitory constant (Ki) of under 100 nM. For the same molecule, the concentration for half-maximal inhibition (IC50) on Aurora2 and at Syk was under 500 nM in each case.

For the molecule `c1cncc(Oc2cccc(Nc3nccc(-c4nccs4)n3)c2)c1` [Compound I-50], the IC50 is 500 to 2000 nM against Aurora2 and under 500 nM against Syk.

On to `Nc1cccc(COc2cccc(Nc3nccc(-c4nccs4)n3)c2)c1` [Compound I-14], for which the inhibition constant (Ki) on GSK3-β (AA 1-420) was under 100 nM. Moreover, the IC50 against Aurora2 and against Syk was 500 to 2000 nM in each case.

`c1ccc(Oc2cccc(Nc3nccc(-c4nccs4)n3)c2)cc1` [Compound I-4] registered a Ki at GSK3-β (AA 1-420) of under 100 nM. The concentration for half-maximal inhibition (IC50) against Aurora2 and against Syk was 500 to 2000 nM throughout.

As to `Clc1cccc(Nc2nccc(-c3nccs3)n2)c1` [Compound I-22], on GSK3-β (AA 1-420), the inhibitory constant (Ki) is under 100 nM. Moreover, the IC50 at Aurora2 and against Syk was under 500 nM throughout.

Take `c1ccc(COc2cccc(Nc3nccc(-c4nccs4)n3)c2)cc1` [Compound I-7, (3-Benzyloxy-phenyl)-(4-thiazol-2-yl-pyrimidin-2-yl)-amine]: the concentration for half-maximal inhibition (IC50) against Aurora2 is over 2000 nM; against Syk it was under 500 nM.

Take `c1cc(Nc2nccc(-c3nccs3)n2)cc(Oc2ccncc2)c1` [Compound I-56]: the IC50 against Aurora2 and at Syk was 500 to 2000 nM in each case.

With `Clc1ccc(COc2cccc(Nc3nccc(-c4nccs4)n3)c2)cc1Cl` [Compound I-2], the Ki on GSK3-β (AA 1-420) was over 1000 nM. Moreover, the IC50 against Aurora2 and against Syk was over 2000 nM in each case.

`COC(=O)c1ccc(COc2cccc(Nc3nccc(-c4nccs4)n3)c2)cc1` [Compound I-82] showed a Ki at GSK3-β (AA 1-420) of under 100 nM. In addition, the half-inhibitory concentration (IC50) on Aurora2 and on Syk was over 2000 nM each time.

On GSK3-β (AA 1-420), `c1cc(Nc2nccc(-c3nccs3)n2)cc(OCC2CCCCC2)c1` [Compound I-76] came in with a Ki of under 100 nM. The half-inhibitory concentration (IC50) at Aurora2 and against Syk was over 2000 nM in each case.

In turn, `Clc1cccc(COc2cccc(Nc3nccc(-c4nccs4)n3)c2)c1Cl` [Compound I-112] yielded a Ki at GSK3-β (AA 1-420) of under 100 nM. Besides, the IC50 on Aurora2 and against Syk was over 2000 nM in each case.

`Fc1ccc(Nc2nccc(-c3nccs3)n2)cc1F` [Compound I-49]: the inhibition constant (Ki) at GSK3-β (AA 1-420) was under 100 nM. Moreover, the values for the IC50 on Aurora2 and against Syk were 500 to 2000 nM and over 2000 nM, respectively.

In turn, `Cc1ccc(Nc2nccc(-c3nccs3)n2)cc1` [Compound I-67] gave a Ki at GSK3-β (AA 1-420) of 100 to 1000 nM. Further, the IC50 at Aurora2 and on Syk was under 500 nM each time.

Take `c1cc(Nc2nccc(-c3nccs3)n2)cc(OCc2ccncc2)c1` [Compound I-8]: at GSK3-β (AA 1-420), the inhibition constant Ki was under 100 nM. For the same molecule, the values for the 50% inhibitory concentration (IC50) against Aurora2 and on Syk were under 500 nM and over 2000 nM, respectively.

Regarding `Cc1ccccc1COc1cccc(Nc2nccc(-c3nccs3)n2)c1` [Compound I-115], the inhibition constant Ki on GSK3-β (AA 1-420) is under 100 nM. Besides, the 50% inhibitory concentration (IC50) at Syk is over 2000 nM.

In turn, `c1cncc(COc2cccc(Nc3nccc(-c4nccs4)n3)c2)c1` [Compound I-23] returned a Ki at GSK3-β (AA 1-420) of under 100 nM. The IC50 at Aurora2 and at Syk was under 500 nM each time.

In turn, `Clc1ccccc1COc1cccc(Nc2nccc(-c3nccs3)n2)c1` [Compound I-88] showed an inhibitory constant (Ki) on GSK3-β (AA 1-420) of under 100 nM. In addition, the concentration for half-maximal inhibition (IC50) is 500 to 2000 nM against Aurora2 and over 2000 nM on Syk.

For the molecule `Nc1ccccc1COc1cccc(Nc2nccc(-c3nccs3)n2)c1` [Compound I-38], the Ki at GSK3-β (AA 1-420) was under 100 nM. Further, the IC50 against Aurora2 and on Syk was under 500 nM each time.

Molecule `c1cc(Nc2nccc(-c3nccs3)n2)cc(OCc2ccc3c(c2)OCO3)c1` [Compound I-17] displayed a Ki at GSK3-β (AA 1-420) of under 100 nM. The concentration for half-maximal inhibition (IC50) on Aurora2 and at Syk was under 500 nM in each case.

At GSK3-β (AA 1-420), `O=[N+]([O-])c1ccccc1COc1cccc(Nc2nccc(-c3nccs3)n2)c1` [Compound I-35] yielded a Ki of under 100 nM. Besides, the IC50 against Aurora2 and at Syk was over 2000 nM throughout.

Regarding `Clc1cccc(Cl)c1Nc1nccc(-c2nccs2)n1` [Compound I-61], the inhibitory constant (Ki) on GSK3-β (AA 1-420) was over 1000 nM. For the same molecule, the 50% inhibitory concentration (IC50) against Aurora2 and at Syk was over 2000 nM in each case.

For `Fc1cccc(Nc2nccc(-c3nccs3)n2)c1` [Compound I-19], at GSK3-β (AA 1-420), the Ki was under 100 nM. The IC50 at Aurora2 and against Syk was 500 to 2000 nM in each case.

On to `Fc1cc(Nc2nccc(-c3nccs3)n2)cc(F)c1F` [Compound I-58], for which the Ki at GSK3-β (AA 1-420) is under 100 nM. For the same molecule, the IC50 against Aurora2 and against Syk was over 2000 nM throughout.

In turn, `Cc1cc(C)cc(Nc2nccc(-c3nccs3)n2)c1` [Compound I-73] gave a Ki on GSK3-β (AA 1-420) of under 100 nM. Besides, the half-inhibitory concentration (IC50) against Aurora2 and against Syk was under 500 nM each time.

For the molecule `Fc1ccc(Nc2nccc(-c3nccs3)n2)cc1` [Compound I-43], the inhibitory constant (Ki) on GSK3-β (AA 1-420) is under 100 nM. Besides, the 50% inhibitory concentration (IC50) against Aurora2 and at Syk was over 2000 nM in each case.

In turn, `Oc1cccc(Nc2nccc(-c3nccs3)n2)c1` [Compound I-11] came in with an inhibitory constant (Ki) on GSK3-β (AA 1-420) of under 100 nM. Further, the half-maximal inhibitory concentration (IC50) against Aurora2 and on Syk was under 500 nM throughout.

At GSK3-β (AA 1-420), `FC(F)(F)c1ccccc1COc1cccc(Nc2nccc(-c3nccs3)n2)c1` [Compound I-47] registered an inhibition constant (Ki) of under 100 nM. The half-maximal inhibitory concentration (IC50) at Syk was over 2000 nM.
